Data as given in ChEMBL document CHEMBL3045376, “Pharmacophore modeling and 3D QSAR analysis of isothiazolidinedione derivatives as PTP1B inhibitors” (Med Chem Res, 2013).

What follows are compounds tested against T1, Tyrosine-protein phosphatase non-receptor type 1 (Homo sapiens, UniProt P18031) (assay: Inhibition of Homo sapiens (human) PTP1B expressed in Escherichia coli using PNPP as substrate).
T1 sequence (P18031 whole entry): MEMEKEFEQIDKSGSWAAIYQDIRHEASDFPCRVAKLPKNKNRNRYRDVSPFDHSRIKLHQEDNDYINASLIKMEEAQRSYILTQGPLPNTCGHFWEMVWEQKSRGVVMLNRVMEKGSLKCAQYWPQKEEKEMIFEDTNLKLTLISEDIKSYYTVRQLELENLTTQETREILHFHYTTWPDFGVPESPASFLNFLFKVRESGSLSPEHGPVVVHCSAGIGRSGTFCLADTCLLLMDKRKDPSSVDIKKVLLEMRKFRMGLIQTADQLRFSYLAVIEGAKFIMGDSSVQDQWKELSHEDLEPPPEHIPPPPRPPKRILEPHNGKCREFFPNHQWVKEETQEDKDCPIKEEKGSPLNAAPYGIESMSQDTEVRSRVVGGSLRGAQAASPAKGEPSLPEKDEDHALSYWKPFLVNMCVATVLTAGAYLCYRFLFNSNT
Compound NC(=O)[C@H](Cc1ccc(C2=CC(=O)NS2(=O)=O)cc1)NC(=O)[C@H](Cc1ccccc1)NC(=O)Cc1ccc(C(F)(F)F)cc1 has an IC50 of 1400 nM. For CCCCCNC(=O)[C@H](Cc1ccc(C2=CS(=O)(=O)NC2=O)cc1)NC(=O)[C@H](Cc1ccccc1)NC(=O)Cc1ccc(OC)cc1, the IC50 was 6000 nM. In the case of CCCCCNC(=O)[C@H](Cc1ccc(N2CC(=O)NS2(=O)=O)cc1)NC(=O)[C@H](Cc1ccccc1)NC(=O)Cc1ccc(OC)cc1, the IC50 is reported as 1500 nM. CCCCCNC(=O)[C@H](Cc1ccc(C2=CC(=O)NS2(=O)=O)cc1)NC(=O)[C@H](Cc1ccccc1)NC(=O)Cc1ccc(OC)cc1 showed an IC50 of 1200 nM. CC(C)(C)OC(=O)N[C@@H](Cc1ccc(C2CC(=O)NS2(=O)=O)cc1)C(N)=O (stereo partly specified) was tested, and the IC50 was 70000 nM. Compound CC(=O)N[C@@H](Cc1ccc(C2CC(=O)NS2(=O)=O)cc1)C(N)=O (stereo partly specified) has an IC50 of 100000 nM. Work on NC(=O)[C@@H](N)Cc1ccc(C2CC(=O)NS2(=O)=O)cc1 (stereo partly specified) yielded an IC50 of 100000 nM. NC(=O)[C@H](Cc1ccc(C2CC(=O)NS2(=O)=O)cc1)NC(=O)[C@H](Cc1ccccc1)NC(=O)CCc1ccccc1 (stereo partly specified) was tested, and the IC50 was 340 nM. Compound NC(=O)[C@H](Cc1ccc(C2CC(=O)NS2(=O)=O)cc1)NC(=O)[C@H](Cc1ccccc1)NC(=O)Cc1ccc(C(F)(F)F)cc1 (stereo partly specified) has an IC50 of 170 nM. For COc1ccc(CC(=O)N[C@@H](Cc2ccccc2)C(=O)N[C@@H](Cc2ccc(C3CC(=O)NS3(=O)=O)cc2)C(N)=O)cc1 (stereo partly specified), the IC50 was 170 nM. For NC(=O)[C@H](Cc1ccc(C2CC(=O)NS2(=O)=O)cc1)NC(=O)[C@H](Cc1ccccc1)NC(=O)Cc1ccc(O)cc1 (stereo partly specified), the IC50 was 170 nM. NC(=O)[C@H](Cc1ccc(C2CC(=O)NS2(=O)=O)cc1)NC(=O)[C@H](Cc1ccccc1)NC(=O)Cc1ccccc1 (stereo partly specified) gave an IC50 of 180 nM. CC(=O)N[C@@H](Cc1ccccc1)C(=O)N[C@@H](Cc1ccc(C2CC(=O)NS2(=O)=O)cc1)C(N)=O (stereo partly specified) showed an IC50 of 661 nM. For NC(=O)[C@H](Cc1ccc(C2CC(=O)NS2(=O)=O)cc1)NC(=O)[C@@H](N)Cc1ccccc1 (stereo partly specified), the IC50 was 100000 nM. NC(=O)[C@H](Cc1ccc(C2=CC(=O)NS2(=O)=O)cc1)NC(=O)[C@H](Cc1ccccc1)NC(=O)CCc1ccccc1 gave an IC50 of 2700 nM. In the case of COc1ccc(CC(=O)N[C@@H](Cc2ccccc2)C(=O)N[C@@H](Cc2ccc(C3=CC(=O)NS3(=O)=O)cc2)C(N)=O)cc1, the IC50 is reported as 1600 nM. Work on NC(=O)[C@H](Cc1ccc(C2=CC(=O)NS2(=O)=O)cc1)NC(=O)[C@H](Cc1ccccc1)NC(=O)Cc1ccc(O)cc1 yielded an IC50 of 791 nM. NC(=O)[C@H](Cc1ccc(C2=CC(=O)NS2(=O)=O)cc1)NC(=O)[C@H](Cc1ccccc1)NC(=O)c1ccccc1 gave an IC50 of 1800 nM. Work on NC(=O)[C@H](Cc1ccc(C2=CC(=O)NS2(=O)=O)cc1)NC(=O)[C@@H](N)Cc1ccccc1 yielded an IC50 of 100000 nM. Work on NC(=O)[C@H](Cc1ccc(C2=CC(=O)NS2(=O)=O)cc1)NC(=O)[C@H](Cc1ccccc1)NC(=O)Cc1ccccc1 yielded an IC50 of 1000 nM. In the case of CC(=O)N[C@@H](Cc1ccccc1)C(=O)N[C@@H](Cc1ccc([C@@H]2CC(=O)NS2(=O)=O)cc1)C(N)=O, the IC50 is reported as 180 nM.
